Results taken from patent US20260125382A1, “COMPOUNDS FOR INHIBITING OR DEGRADING CDK2 AND/OR CDK9 AND MEDICINAL USE THEREOF” (KOREA RESEARCH INSTITUTE OF CHEMICAL TECHNOLOGY, priority 2022, published 2026).

Key:
CDK9 = molecular target: T1, CDK9 (Homo sapiens, UniProt P50750); test: CDK protein degradation activity (Western blotting), CDK9; assay type: cell-based; settings: MDA-MB-231 cells, 16 hours, Western blot
T1 construct: endogenous in cells; host or cells: MDA-MB-231
How it was run: (§1)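 MDA-MB-231; cmpd 100 nM / 1 μM / 10 μM final vs DMSO, 16 h. Triton X-100 lysates (pH 7.5, phosphatase/protease inhibitors) → SDS-PAGE → Western blot, anti-CDK2, anti-CDK9, tubulin loading control; densitometry.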

CDK2 = molecular target: T2, CDK2 (Homo sapiens, UniProt P24941); test: CDK protein degradation activity (Western blotting), CDK2; assay type: cell-based; settings: MDA-MB-231 cells, 16 hours, Western blot
T2 construct: endogenous in cells; host or cells: MDA-MB-231
How it was run: as §1

T1 sequence (P50750 whole entry): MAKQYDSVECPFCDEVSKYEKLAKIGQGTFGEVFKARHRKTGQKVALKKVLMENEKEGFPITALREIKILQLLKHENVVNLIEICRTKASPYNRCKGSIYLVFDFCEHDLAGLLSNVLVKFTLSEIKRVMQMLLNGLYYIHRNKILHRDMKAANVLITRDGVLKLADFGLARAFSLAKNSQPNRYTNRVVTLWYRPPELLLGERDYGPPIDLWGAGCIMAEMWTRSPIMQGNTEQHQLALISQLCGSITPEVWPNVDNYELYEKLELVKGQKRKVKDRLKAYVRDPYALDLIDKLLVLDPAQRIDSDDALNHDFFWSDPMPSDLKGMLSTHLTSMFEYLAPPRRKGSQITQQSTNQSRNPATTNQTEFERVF

| Structure (SMILES) | Enzyme degradation CDK9 (% remaining) @ 0.1 μM (CDK9) | Enzyme degradation CDK9 (% remaining) @ 1 μM (CDK9) | Enzyme degradation CDK9 (% remaining) @ 10 μM (CDK9) | Enzyme degradation CDK2 (% remaining) @ 0.1 μM (CDK2) | Enzyme degradation CDK2 (% remaining) @ 1 μM (CDK2) | Enzyme degradation CDK2 (% remaining) @ 10 μM (CDK2) |
| --- | --- | --- | --- | --- | --- | --- |
| O=C1CC[C@H](N2C(=O)c3ccc(OCC(=O)N4CCC5(CC4)CC(N4CCN(c6ccc(Nc7ncnc8c7ncn8[C@H]7C[C@@H](NC(=O)Cc8ccccc8)C7)cc6)CC4)C5)cc3C2=O)C(=O)N1 [Compound 208, N-((1s,3s)-3-(6-((4-(4-(7-(2-((2-(2,6-dioxopiperidin-3-yl)-1,3-dioxoisoindolin-5-yl)oxy)acetyl)-7-azaspiro[3.5]nonan-2-yl)piperazin-1-yl)phenyl)amino)-9H-purin-9-yl)cyclobutyl)-2-phenylacetamide] | 10% | 0% | 0% | 80% | 70% | 70% |
| O=C1CC[C@H](N2C(=O)c3cccc(N4CCC5(CC4)CC(N4CCN(c6ccc(Nc7ncnc8c7ncn8[C@H]7C[C@@H](NC(=O)Cc8ccccc8)C7)cc6)CC4)C5)c3C2=O)C(=O)N1 [Compound 209, N-((1s,3s)-3-(6-((4-(4-(7-(2-(2,6-dioxopiperidin-3-yl)-1,3-dioxoisoindolin-4-yl)-7-azaspiro[3.5]nonan-2-yl)piperazin-1-yl)phenyl)amino)-9H-purin-9-yl)cyclobutyl)-2-phenylacetamide] | 30% | 20% | 10% | 70% | 60% | 30% |
| O=C1CC[C@H](N2C(=O)c3ccc(N4CCC5(CC4)CC(N4CCN(c6ccc(Nc7ncnc8c7ncn8[C@H]7C[C@@H](NC(=O)Cc8ccccc8)C7)cc6)CC4)C5)cc3C2=O)C(=O)N1 [Compound 210, N-((1s,3s)-3-(6-((4-(4-(7-(2-(2,6-dioxopiperidin-3-yl)-1,3-dioxoisoindolin-5-yl)-7-azaspiro[3.5]nonan-2-yl)piperazin-1-yl)phenyl)amino)-9H-purin-9-yl)cyclobutyl)-2-phenylacetamide] | 10% | 0% | 0% | 30/30/30% | 30/30/30% | 30/30/30% |
| O=C1CC[C@H](N2C(=O)c3cccc(NCC(=O)N4CCC(CC(=O)N5CCN(c6ccc(Nc7ncnc8c7ncn8C7CC(NC(=O)Cc8ccccc8)C7)cc6)CC5)CC4)c3C2=O)C(=O)N1 (stereo partly drawn) [Compound 211, N-((1s,3s)-3-(6-((4-(4-(2-(1-((2-(2,6-dioxopiperidin-3-yl)-1,3-dioxoisoindolin-4-yl)glycyl)piperidin-4-yl)acetyl)piperazin-1-yl)phenyl)amino)-9H-purin-9-yl)cyclobutyl)-2-phenylacetamide] | 30/30/30% | 30/30/30% | 30/30/30% | 50% | 50% | 40% |
| O=C1CC[C@H](N2C(=O)c3cccc(OCC(=O)N4CCC(CC(=O)N5CCN(c6ccc(Nc7ncnc8c7ncn8C7CC(NC(=O)Cc8ccccc8)C7)cc6)CC5)CC4)c3C2=O)C(=O)N1 (stereo partly drawn) [Compound 212, N-((1s,3s)-3-(6-((4-(4-(2-(1-(2-((2-(2,6-dioxopiperidin-3-yl)-1,3-dioxoisoindolin-4-yl)oxy)acetyl)piperidin-4-yl)acetyl)piperazin-1-yl)phenyl)amino)-9H-purin-9-yl)cyclobutyl)-2-phenylacetamide] | 70% | 30% | 20% | 30% | 20% | 10% |
| O=C1CC[C@H](N2C(=O)c3ccc(NCC(=O)N4CCC(CC(=O)N5CCN(c6ccc(Nc7ncnc8c7ncn8C7CC(NC(=O)Cc8ccccc8)C7)cc6)CC5)CC4)cc3C2=O)C(=O)N1 (stereo partly drawn) [Compound 213, N-((1s,3s)-3-(6-((4-(4-(2-(1-((2-(2,6-dioxopiperidin-3-yl)-1,3-dioxoisoindolin-5-yl)glycyl)piperidin-4-yl)acetyl)piperazin-1-yl)phenyl)amino)-9H-purin-9-yl)cyclobutyl)-2-phenylacetamide] | 70% | 30% | 10% | 50% | 70% | 50% |
| O=C1CC[C@H](N2C(=O)c3ccc(N4CCC(CC(=O)N5CCN(c6ccc(Nc7ncnc8c7ncn8[C@H]7C[C@@H](NC(=O)Cc8ccccc8)C7)cc6)CC5)CC4)cc3C2=O)C(=O)N1 [Compound 216, N-((1s,3s)-3-(6-((4-(4-(2-(1-(2-(2,6-dioxopiperidin-3-yl)-1,3-dioxoisoindolin-5-yl)piperidin-4-yl)acetyl)piperazin-1-yl)phenyl)amino)-9H-purin-9-yl)cyclobutyl)-2-phenylacetamide] | 50/50/50% | 50/50/50% | 50/50/50% | 40% | 40% | 50% |

The remaining lines, values ahead:

| Enzyme degradation CDK9 (% remaining) @ 0.1 μM (CDK9) | Enzyme degradation CDK9 (% remaining) @ 1 μM (CDK9) | Enzyme degradation CDK9 (% remaining) @ 10 μM (CDK9) | Enzyme degradation CDK2 (% remaining) @ 0.1 μM (CDK2) | Enzyme degradation CDK2 (% remaining) @ 1 μM (CDK2) | Enzyme degradation CDK2 (% remaining) @ 10 μM (CDK2) | Structure (SMILES) |
| --- | --- | --- | --- | --- | --- | --- |
| 0/0/0% | 0/0/0% | 0/0/0% | 80% | 100% | 50% | O=C(COc1ccc(C2CCC(=O)NC2=O)cc1)NC[C@H]1CC[C@H](CN2CCN(c3ccc(Nc4ncnc5c4ncn5[C@H]4C[C@@H](NC(=O)Cc5ccccc5)C4)cc3)CC2)CC1 (stereo partly drawn) [Compound 217, 2-(4-(2,6-dioxopiperidin-3-yl)phenoxy)-N-(((1r,4r)-4-((4-(4-((9-((1s,3s)-3-(2-phenylacetamido)cyclobutyl)-9H-purin-6-yl)amino)phenyl)piperazin-1-yl)methyl)cyclohexyl)methyl)acetamide] |
| 100% | 10% | 0% | 80% | 50% | 50% | O=C(COc1cccc2c1C(=O)N(C1CCC(=O)NC1=O)C2=O)NCC1CCC(CN2CCN(c3ccc(Nc4ncnc5c4ncn5C4CC(NC(=O)Cc5ccccc5)C4)cc3)CC2)CC1 (stereo not drawn) [Compound 219, 2-((2-(2,6-dioxopiperidin-3-yl)-1,3-dioxoisoindolin-4-yl)oxy)-N-(((1r,4r)-4-((4-(4-((9-((1s,3s)-3-(2-phenylacetamido)cyclobutyl)-9H-purin-6-yl)amino)phenyl)piperazin-1-yl)methyl)cyclohexyl)methyl)acetamide] |
| 40% | 0% | 0% | 80% | 80% | 60% | O=C(CNc1ccc2c(c1)C(=O)N(C1CCC(=O)NC1=O)C2=O)NC[C@H]1CC[C@H](CN2CCN(c3ccc(Nc4ncnc5c4ncn5[C@H]4C[C@@H](NC(=O)Cc5ccccc5)C4)cc3)CC2)CC1 (stereo partly drawn) [Compound 220, 2-((2-(2,6-dioxopiperidin-3-yl)-1,3-dioxoisoindolin-5-yl)amino)-N-(((1r,4r)-4-((4-(4-((9-((1s,3s)-3-(2-phenylacetamido)cyclobutyl)-9H-purin-6-yl)amino)phenyl)piperazin-1-yl)methyl)cyclohexyl)methyl)acetamide] |
| 100% | 60% | 0% | 100/100/100% | 100/100/100% | 100/100/100% | O=C(COc1ccc2c(c1)C(=O)N(C1CCC(=O)NC1=O)C2=O)NC[C@H]1CC[C@H](CN2CCN(c3ccc(Nc4ncnc5c4ncn5[C@H]4C[C@@H](NC(=O)Cc5ccccc5)C4)cc3)CC2)CC1 (stereo partly drawn) [Compound 221, 2-((2-(2,6-dioxopiperidin-3-yl)-1,3-dioxoisoindolin-5-yl)oxy)-N-(((1r,4r)-4-((4-(4-((9-((1s,3s)-3-(2-phenylacetamido)cyclobutyl)-9H-purin-6-yl)amino)phenyl)piperazin-1-yl)methyl)cyclohexyl)methyl)acetamide] |
| 70% | 70% | 80% | 100/100/100% | 100/100/100% | 100/100/100% | O=C1CC[C@H](N2C(=O)c3cccc(NC[C@H]4CC[C@H](CN5CCN(c6ccc(Nc7ncnc8c7ncn8[C@H]7C[C@@H](NC(=O)Cc8ccccc8)C7)cc6)CC5)CC4)c3C2=O)C(=O)N1 [Compound 222, N-((1s,3s)-3-(6-((4-(4-(((1r,4r)-4-(((2-(2,6-dioxopiperidin-3-yl)-1,3-dioxoisoindolin-4-yl)amino)methyl)cyclohexyl)methyl)piperazin-1-yl)phenyl)amino)-9H-purin-9-yl)cyclobutyl)-2-phenylacetamide] |
